According to patent EP0097071A1, “Benzhydryl sulfinylacetamide derivatives and their therapeutical use” (LABORATOIRE L. LAFON Société anonyme dite:, priority 1982, dated 1983):

Columns and labels:
souris [1] = experiment: Interaction with reserpine; format: in vivo; conditions: 32 mg/kg, 64 mg/kg et 128 mg/kg i.p.
souris [2] = experiment: Behavioural despair (forced immersion); format: in vivo; conditions: 8 mg/kg, 32 mg/kg et 128 mg/kg i.p.
Procedure, shortened: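 Male mice were dosed i.p. with compound suspended in aqueous gum arabic at 20 ml/kg, 10 per dose. Thirty minutes later each mouse was put in a confined space holding 6 cm of water, and immobility time was scored from minute 2 to minute 6.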

souris [3] = experiment: Motility reduced by hypoxic aggression (acute hypobaric anoxia); format: in vivo; conditions: 32 mg/kg, mais surtout 128 mg/kg i.p.
Procedure, shortened: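 Male mice (10 per dose, 20 controls) got compound i.p. as an aqueous gum arabic suspension (20 ml/kg). Thirty minutes later they underwent acute hypobaric anoxia: 600 mm Hg depression over 90 s, then 45 s release. Motility was then recorded in an actimeter for 10 min.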

souris mâle [4] = experiment: Toxicity, DL-0; format: in vivo; conditions: i.p.
Procedure, shortened: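 Male mice dosed intraperitoneally with compound suspended in aqueous gum arabic at 20 ml/kg. Value is DL-0, the minimal non-lethal dose.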

souris [5] = experiment: Spontaneous motility (actimeter); format: in vivo; conditions: 8 mg/kg, 32 mg/kg et 128 mg/kg i.p.
Procedure, shortened: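 Male mice dosed i.p. as a suspension in aqueous gum arabic (20 ml/kg); 30 min later they are placed in an actimeter and motility is recorded for 30 min, 6 mice per dose, 12 controls.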

homme = experiment: Clinical trials; format: in vivo
Excerpt: Les études cliniques ont porté sur les troubles de la vigilance, de l'éveil et des états confusionnels, d'une part, et sur les troubles de l'affectivité, du contact et des dépressions, d'autre part.

souris [6] = experiment: Traction test; format: in vivo; conditions: 0,5 h after administration, dose not stated
rats = experiment: Interaction with amphetamine (stereotypies); format: in vivo; conditions: rat, 64 mg/kg i.p.
Procedure, shortened: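 Male rats, groups of 6, given test compound i.p. as aqueous gum arabic suspension; amphetamine 2 mg/kg i.p. injected 30 min later and stereotypies scored.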

souris [7] = experiment: Four plates test; format: in vivo; conditions: 0,5 h after administration, dose not stated
souris [8] = experiment: Intergroup aggressiveness; format: in vivo; conditions: dose not stated
Procedure, shortened: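 Male mice, housed in groups of 3 on either side of an opaque partition for 3 weeks, received compound i.p. as a gum arabic suspension at 20 ml/kg. After 30 min the partition was removed, and fights were counted over 10 min.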

souris [9] = experiment: Interaction with apomorphine, mouse; format: in vivo
Procedure, shortened: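 Male mice, 6 per dose, received the test compound intraperitoneally as an aqueous gum arabic suspension (20 ml/kg).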

rats mâles = experiment: Global behaviour and reactivities, rat; format: in vivo
souris [10] = experiment: Interaction with oxotremorine; format: in vivo
Procedure, shortened: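 Groups of 6 male mice received test compound i.p. as a suspension in aqueous gum arabic (20 ml/kg).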

souris [11] = experiment: Interaction with barbital (sleep); format: in vivo; conditions: 32 mg/kg et 128 mg/kg i.p.
Procedure, shortened: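 Male mice (groups of 10) dosed intraperitoneally with compound suspended in aqueous gum arabic (20 ml/kg); barbital 220 mg/kg i.p. given half an hour later.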

souris [12] = experiment: Asphyxic anoxia (gallamine triethiodide); format: in vivo; conditions: dose not stated
Procedure, shortened: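 Male mice, 10 per dose, given compound i.p. as suspension in aqueous gum arabic (20 ml/kg). Gallamine triethiodide 32 mg/kg i.p. injected 30 min after compound.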

souris [13] = experiment: Electroshock; format: in vivo; conditions: dose not stated
rat = experiment: Interaction with apomorphine, rat; format: in vivo; conditions: 64 mg/kg i.p.
Procedure, shortened: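 Groups of 6 male rats received test compound intraperitoneally as a suspension in aqueous gum arabic (5 ml/kg).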

souris [14] = experiment: Motility reduced by habituation to the enclosure; format: in vivo; conditions: dès 8 mg/kg et surtout à 32 mg/kg et 128 mg/kg i.p.
Procedure, shortened: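 Male mice (6 per dose, 12 controls) habituated 18 h in actimeters got compound i.p. as aqueous gum arabic suspension, 20 ml/kg. Returned to enclosures immediately; motility recorded for 30 min starting 30 min post-dose.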

souris mâle [15] = experiment: Pentobarbital-induced sleep duration; format: in vivo; conditions: dose 32 mg/kg i.p., 0,5 h before pentobarbital
Excerpt: Les composés selon l'invention se distinguent du benzhydrylsulfinylacétamide (CRL 40476) précité par une différence d'action vis-à-vis du sommeil barbiturique. […]. Cette différence d'action qui est intéressante sur le plan thérapeutique est illustrée par le tableau IV

souris groupées = experiment: Toxicity in grouped mice; conditions: in vivo
SNC = experiment: Essential activity on the CNS (Tableau I and conclusions of the neuropsychopharmacological study); format: in vivo; conditions: in vivo
Excerpt: Dans le tableau I ci-après, on a consigné un certain nombre de composés selon la formule I de façon nullement limitative, en mentionnant l'activité essentielle sur le SNC.
Les composés de formule I agissent tous sur le SNC. Les produits des exemples 1-3 et 7-8 sont des agents stimulants, en revanche les produits des exemples 4-6 sont des agents sédatifs.

souris mâles = experiment: Global behaviour and reactivities, mouse; format: in vivo

Question: For NC(=O)C[S+]([O-])C(c1ccc(F)cc1)c1ccc(F)cc1 (centres unmarked) [Exemple 8, 4,4'-difluorobenzhydrylsulfinylacétamide], which “hypothermie réserpinique” value (souris [1]) is on record?
Answer: antagonise tardivement

Question: And the “ptôsis réserpinique” value (souris [1]; à 24 h)?
Answer: antagonise également mais de façon modérée

Question: And the “durée d'immobilité de la souris placée en immersion forcée” value (souris [2])?
Answer: diminue nettement

Question: What about the “récupération motrice après séjour bref dans une enceinte à pression réduite” value (souris [3]) of the same molecule?
Answer: amélioration significative

Question: What about the DL-O (souris mâle [4]) of the same molecule?
Answer: supérieure à 256 mg/kg

Question: And the “motilité spontanée” value (souris [5])?
Answer: augmentation nette

Question: What about the “action contre l'énurésie” value (homme) of the same molecule?
Answer: agissent efficacement

Question: And the “résultats en tant que médicaments de l'éveil” value (homme; notamment vieillard, gélules ou comprimés de 100 à 200 mg, 1 à 3 par jour)?
Answer: excellents résultats

Question: And the “déficit moteur (traction)” value (souris [6])?
Answer: ne provoque pas d'incapacité motrice majeure

Question: What about the “stéréotypies amphétaminiques” value (rats) of the same molecule?
Answer: potentialisation

Question: And the “nombre de passages punis” value (souris [7])?
Answer: n'entraîne pas d'augmentation

Question: And the “agressivité intergroupes (nombre de combats)” value (souris [8])?
Answer: n'a pas d'effet antiagressif

Question: What about the “own effect on temperature” value (souris [9]; 32 mg/kg et 128 mg/kg i.p.) of the same molecule?
Answer: hypothermisant

Question: What about the “hypothermie induite par l'apomorphine” value (souris [9]; 32 mg/kg et 128 mg/kg i.p., apomorphine 1 et 16 mg/kg) of the same molecule?
Answer: aggrave

Question: And the “comportement de verticalisation et stéréotypies (apomorphine)” value (souris [9]; dose not stated)?
Answer: ne modifie pas

Question: And the “Observations (comportement global et réactivités)” value (“Observations” below) (rats mâles; 16 mg/kg i.p.)?
Answer: excitation - réactivité au toucher pendant 2 h

Question: What about the “Observations” value (rats mâles; 64 mg/kg i.p.) of the same molecule?
Answer: excitation - réactivité au toucher - fréquence respiratoire augmentée pendant 24 h

Question: And the “hypothermie induite par l'oxotrémorine” value (souris [10]; 2 mg/kg, 8 mg/kg, 32 mg/kg et 128 mg/kg i.p.)?
Answer: antagonise modérément et tardivement

Question: What about the “signes de stimulation cholinergique périphérique dus à l'oxotrémorine” value (souris [10]; dose not stated) of the same molecule?
Answer: ne modifie pas

Question: What about the “tremblements induits par l'oxotrémorine” value (souris [10]; dose not stated) of the same molecule?
Answer: ne sont pratiquement pas modifiés

Question: And the “durée du sommeil barbiturique” value (souris [11])?
Answer: diminue nettement

Question: And the “délai d'apparition des convulsions et de la mort consécutives à une anoxie asphyxique” value (souris [12])?
Answer: ne modifie pas

Question: What about the “effets convulsivants de l'électrochoc” value (souris [13]) of the same molecule?
Answer: ne modifie pratiquement pas

Question: And the “stéréotypies induites par l'apomorphine” value (rat)?
Answer: augmente

Question: And the “activité motrice chez la souris habituée à son enceinte” value (souris [14])?
Answer: reprise d'activité motrice très nette

Question: And the “Action sur la durée du sommeil induit par le pentobarbital (50 mg/kg i.p.) effet” value (souris mâle [15])?
Answer: (a)

Question: What about the “toxicité particulière chez les souris groupées” value (souris groupées) of the same molecule?
Answer: absence de toxicité particulière

Question: What about the “Activité sur le SNC” value (SNC) of the same molecule?
Answer: stimulant

Question: What about the “conclusion of the neuropsychopharmacological study: main type of CNS effect” value (SNC) of the same molecule?
Answer: composante excitante

Question: And the “signes de stimulation sympathique périphérique” value (souris mâles; souris)?
Answer: absence

Question: And the “Observations” value (souris mâles; souris, 2 mg/kg i.p.)?
Answer: réactivité au toucher pendant 2 h

Question: And the “Observations” value (souris mâles; souris, 8 mg/kg i.p.)?
Answer: éxcitation tardive débutant 2 h après administration - réactivité au toucher pendant 2 h

Question: And the “Observations” value (souris mâles; souris, 512 mg/kg i.p.)?
Answer: démarche titubante pendant 0,75 h, - convulsions (66% des animaux) pendant 0,75 h

Question: And the mortalité (souris mâles; souris, 512 mg/kg i.p.)?
Answer: 4 animaux sur 6 en 1 h, puis 2 animaux sur 6 en 24 h

Question: What about the convulsions (souris mâles; souris, 512 mg/kg i.p., pendant 0,75 h) of the same molecule?
Answer: 66 % des animaux

Question: And the “Observations” value (souris mâles; souris, 32 mg/kg i.p.)?
Answer: excitation tardive débutant 1 h après administration et durant 2 h - stéréotypies 3 h après administration - réactivité au toucher pendant 24 h

Question: What about the “Observations” value (souris mâles; souris, 128 mg/kg i.p.) of the same molecule?
Answer: excitation avec stéréotypies pen-dant 3 h - augmentation de la réactivité au toucher pendant 24 h - hypothermie (-1,3°C) pendant 3 h

Question: What about the hypothermie (souris mâles; souris, 128 mg/kg i.p.) of the same molecule?
Answer: -1,3 °C

Question: And the “Observations” value (souris mâles; souris, 256 mg/kg i.p.)?
Answer: excitation débutant 0,5 h après adminis-tration - stéréotypies

Question: What about the mortalité (souris mâles; souris, 256 mg/kg i.p.) of the same molecule?
Answer: pas de mortalité

Question: What about the résorption (souris mâles; supposed from the late onset of several effects and the kinetic study of stereotypies) of the same molecule?
Answer: résorption lente
